Patent publication US20160058787A1 (priority 2014, published 2016)

Conditions: in vivo

With sodium polystyrene sulfonate [NSPS] the “reduction of the toxicity and adverse effects of SPS” value was “over 100 folds”.
